Laboratory results as given in US8604023B2, “1,4-benzodiazepinone compounds and their use in treating cancer” (The Regents of the University of Michigan, priority 2009, dated 2013).

Experiments:
Ramos cells = assay: cytotoxicity in Ramos cells; assay type: cell-based; settings: Homo sapiens
Description: The compounds listed in Table 5 were tested for cytotoxicity in Ramos cells. The assay was conducted as described in K. M. Johnson et al. Chemistry & Biology 2005, 12, 485-496.

A549/ATCC = assay: cancer cell growth inhibition (SRB); assay type: cell-based, human; settings: Non-Small Cell Lung Cancer
EKVX = assay: cancer cell growth inhibition (SRB); assay type: cell-based, human; settings: Non-Small Cell Lung Cancer
HOP-62 = assay: cancer cell growth inhibition (SRB); assay type: cell-based, human; settings: Non-Small Cell Lung Cancer
HOP-92 = assay: cancer cell growth inhibition (SRB); assay type: cell-based, human; settings: Non-Small Cell Lung Cancer
NCI-H226 = assay: cancer cell growth inhibition (SRB); assay type: cell-based, human; settings: Non-Small Cell Lung Cancer
NCI-H23 = assay: cancer cell growth inhibition (SRB); assay type: cell-based, human; settings: Non-Small Cell Lung Cancer
NCI-H322M = assay: cancer cell growth inhibition (SRB); assay type: cell-based, human; settings: Non-Small Cell Lung Cancer
NCI-H460 = assay: cancer cell growth inhibition (SRB); assay type: cell-based, human; settings: Non-Small Cell Lung Cancer
NCI-H522 = assay: cancer cell growth inhibition (SRB); assay type: cell-based, human; settings: Non-Small Cell Lung Cancer
COLO 205 = assay: cancer cell growth inhibition (SRB); assay type: cell-based, human; settings: Colon Cancer
HCC-2998 = assay: cancer cell growth inhibition (SRB); assay type: cell-based, human; settings: Colon Cancer
HCT-116 = assay: cancer cell growth inhibition (SRB); assay type: cell-based, human; settings: Colon Cancer
HCT-15 = assay: cancer cell growth inhibition (SRB); assay type: cell-based, human; settings: Colon Cancer
HT29 = assay: cancer cell growth inhibition (SRB); assay type: cell-based, human; settings: Colon Cancer
KM12 = assay: cancer cell growth inhibition (SRB); assay type: cell-based, human; settings: Colon Cancer
SW-620 = assay: cancer cell growth inhibition (SRB); assay type: cell-based, human; settings: Colon Cancer
BT-549 = assay: cancer cell growth inhibition (SRB); assay type: cell-based, human; settings: Breast Cancer
HS 578T = assay: cancer cell growth inhibition (SRB); assay type: cell-based, human; settings: Breast Cancer
MCF7 = assay: cancer cell growth inhibition (SRB); assay type: cell-based, human; settings: Breast Cancer
MDA-MB-231/ATCC = assay: cancer cell growth inhibition (SRB); assay type: cell-based, human; settings: Breast Cancer
MDA-MB-435 = assay: cancer cell growth inhibition (SRB); assay type: cell-based, human; settings: Breast Cancer
NCI/ADR-RES = assay: cancer cell growth inhibition (SRB); assay type: cell-based, human; settings: Breast Cancer
T-47D = assay: cancer cell growth inhibition (SRB); assay type: cell-based, human; settings: Breast Cancer
IGROV1 = assay: cancer cell growth inhibition (SRB); assay type: cell-based, human; settings: Ovarian Cancer
OVCAR-3 = assay: cancer cell growth inhibition (SRB); assay type: cell-based, human; settings: Ovarian Cancer
OVCAR-4 = assay: cancer cell growth inhibition (SRB); assay type: cell-based, human; settings: Ovarian Cancer
OVCAR-5 = assay: cancer cell growth inhibition (SRB); assay type: cell-based, human; settings: Ovarian Cancer
OVCAR-8 = assay: cancer cell growth inhibition (SRB); assay type: cell-based, human; settings: Ovarian Cancer
SK-OV-3 = assay: cancer cell growth inhibition (SRB); assay type: cell-based, human; settings: Ovarian Cancer
CCRF-CEM = assay: cancer cell growth inhibition (SRB); assay type: cell-based, human; settings: Leukemia
HL-60(TB) = assay: cancer cell growth inhibition (SRB); assay type: cell-based, human; settings: Leukemia
K-562 = assay: cancer cell growth inhibition (SRB); assay type: cell-based, human; settings: Leukemia
MOLT-4 = assay: cancer cell growth inhibition (SRB); assay type: cell-based, human; settings: Leukemia
RPMI-8226 = assay: cancer cell growth inhibition (SRB); assay type: cell-based, human; settings: Leukemia
SR = assay: cancer cell growth inhibition (SRB); assay type: cell-based, human; settings: Leukemia
786-0 = assay: cancer cell growth inhibition (SRB); assay type: cell-based, human; settings: Renal Cancer
A498 = assay: cancer cell growth inhibition (SRB); assay type: cell-based, human; settings: Renal Cancer
ACHN = assay: cancer cell growth inhibition (SRB); assay type: cell-based, human; settings: Renal Cancer
CAKI-1 = assay: cancer cell growth inhibition (SRB); assay type: cell-based, human; settings: Renal Cancer
RXF 393 = assay: cancer cell growth inhibition (SRB); assay type: cell-based, human; settings: Renal Cancer
SN12C = assay: cancer cell growth inhibition (SRB); assay type: cell-based, human; settings: Renal Cancer
TK-10 = assay: cancer cell growth inhibition (SRB); assay type: cell-based, human; settings: Renal Cancer
UO-31 = assay: cancer cell growth inhibition (SRB); assay type: cell-based, human; settings: Renal Cancer
LOXIMVI = assay: cancer cell growth inhibition (SRB); assay type: cell-based, human; settings: Melanoma
M14 = assay: cancer cell growth inhibition (SRB); assay type: cell-based, human; settings: Melanoma
MALME-3M = assay: cancer cell growth inhibition (SRB); assay type: cell-based, human; settings: Melanoma
SK-MEL-2 = assay: cancer cell growth inhibition (SRB); assay type: cell-based, human; settings: Melanoma
SK-MEL-28 = assay: cancer cell growth inhibition (SRB); assay type: cell-based, human; settings: Melanoma
SK-MEL-5 = assay: cancer cell growth inhibition (SRB); assay type: cell-based, human; settings: Melanoma
UACC-257 = assay: cancer cell growth inhibition (SRB); assay type: cell-based, human; settings: Melanoma
UACC-62 = assay: cancer cell growth inhibition (SRB); assay type: cell-based, human; settings: Melanoma
DU-145 = assay: cancer cell growth inhibition (SRB); assay type: cell-based, human; settings: Prostate Cancer
PC-3 = assay: cancer cell growth inhibition (SRB); assay type: cell-based, human; settings: Prostate Cancer
SF-268 = assay: cancer cell growth inhibition (SRB); assay type: cell-based, human; settings: CNS Cancer
SF-295 = assay: cancer cell growth inhibition (SRB); assay type: cell-based, human; settings: CNS Cancer
SF-539 = assay: cancer cell growth inhibition (SRB); assay type: cell-based, human; settings: CNS Cancer
SNB-19 = assay: cancer cell growth inhibition (SRB); assay type: cell-based, human; settings: CNS Cancer
SNB-75 = assay: cancer cell growth inhibition (SRB); assay type: cell-based, human; settings: CNS Cancer
U251 = assay: cancer cell growth inhibition (SRB); assay type: cell-based, human; settings: CNS Cancer

In the case of `O=C1Nc2ccc(Cl)cc2C(c2ccc(N3CCNCC3)nc2)=NC1Cc1ccccc1Cl` (stereo not drawn) [Compound V-23], the EC50 (Ramos cells) is reported as at most 5 µM, the “growth inhibition of the cancer cells” value (A549/ATCC) is reported as “+++ (at least 75% growth inhibition of the cancer cells)” and the “growth inhibition of the cancer cells” value (EKVX) is reported as “+++ (at least 75% growth inhibition of the cancer cells)”. For the same compound, the “growth inhibition of the cancer cells” value (HOP-62) was “+++ (at least 75% growth inhibition of the cancer cells)”, the “growth inhibition of the cancer cells” value (HOP-92) was “++ (40%-75% growth inhibition of the cancer cells)” and the “growth inhibition of the cancer cells” value (NCI-H226) was “+ (less than 40% growth inhibition of the cancer cells)”. For the same compound, the “growth inhibition of the cancer cells” value (NCI-H23) was “++ (40%-75% growth inhibition of the cancer cells)”, the “growth inhibition of the cancer cells” value (NCI-H322M) was “+ (less than 40% growth inhibition of the cancer cells)” and the “growth inhibition of the cancer cells” value (NCI-H460) was “+++ (at least 75% growth inhibition of the cancer cells)”. For the same compound, the “growth inhibition of the cancer cells” value (NCI-H522) was “+++ (at least 75% growth inhibition of the cancer cells)”, the “growth inhibition of the cancer cells” value (COLO 205) was “++ (40%-75% growth inhibition of the cancer cells)” and the “growth inhibition of the cancer cells” value (HCC-2998) was “+++ (at least 75% growth inhibition of the cancer cells)”. The “growth inhibition of the cancer cells” value (HCT-116) was “+++ (at least 75% growth inhibition of the cancer cells)”, the “growth inhibition of the cancer cells” value (HCT-15) was “+++ (at least 75% growth inhibition of the cancer cells)” and the “growth inhibition of the cancer cells” value (HT29) was “+++ (at least 75% growth inhibition of the cancer cells)”. The “growth inhibition of the cancer cells” value (KM12) was “+++ (at least 75% growth inhibition of the cancer cells)”, the “growth inhibition of the cancer cells” value (SW-620) was “+++ (at least 75% growth inhibition of the cancer cells)” and the “growth inhibition of the cancer cells” value (BT-549) was “+++ (at least 75% growth inhibition of the cancer cells)”. For the same compound, the “growth inhibition of the cancer cells” value (HS 578T) was “++ (40%-75% growth inhibition of the cancer cells)”, the “growth inhibition of the cancer cells” value (MCF7) was “+++ (at least 75% growth inhibition of the cancer cells)” and the “growth inhibition of the cancer cells” value (MDA-MB-231/ATCC) was “+++ (at least 75% growth inhibition of the cancer cells)”. For the same compound, the “growth inhibition of the cancer cells” value (MDA-MB-435) was “+++ (at least 75% growth inhibition of the cancer cells)”, the “growth inhibition of the cancer cells” value (NCI/ADR-RES) was “+ (less than 40% growth inhibition of the cancer cells)” and the “growth inhibition of the cancer cells” value (T-47D) was “++ (40%-75% growth inhibition of the cancer cells)”. The “growth inhibition of the cancer cells” value (IGROV1) was “+++ (at least 75% growth inhibition of the cancer cells)”, the “growth inhibition of the cancer cells” value (OVCAR-3) was “+++ (at least 75% growth inhibition of the cancer cells)” and the “growth inhibition of the cancer cells” value (OVCAR-4) was “++ (40%-75% growth inhibition of the cancer cells)”. The “growth inhibition of the cancer cells” value (OVCAR-5) was “+++ (at least 75% growth inhibition of the cancer cells)”, the “growth inhibition of the cancer cells” value (OVCAR-8) was “++ (40%-75% growth inhibition of the cancer cells)” and the “growth inhibition of the cancer cells” value (SK-OV-3) was “++ (40%-75% growth inhibition of the cancer cells)”. For the same compound, the “growth inhibition of the cancer cells” value (CCRF-CEM) was “++ (40%-75% growth inhibition of the cancer cells)”, the “growth inhibition of the cancer cells” value (HL-60(TB)) was “+++ (at least 75% growth inhibition of the cancer cells)” and the “growth inhibition of the cancer cells” value (K-562) was “+++ (at least 75% growth inhibition of the cancer cells)”. The “growth inhibition of the cancer cells” value (MOLT-4) was “++ (40%-75% growth inhibition of the cancer cells)”, the “growth inhibition of the cancer cells” value (RPMI-8226) was “++ (40%-75% growth inhibition of the cancer cells)” and the “growth inhibition of the cancer cells” value (SR) was “++ (40%-75% growth inhibition of the cancer cells)”. For the same compound, the “growth inhibition of the cancer cells” value (786-0) was “+++ (at least 75% growth inhibition of the cancer cells)”, the “growth inhibition of the cancer cells” value (A498) was “+ (less than 40% growth inhibition of the cancer cells)” and the “growth inhibition of the cancer cells” value (ACHN) was “+++ (at least 75% growth inhibition of the cancer cells)”. The “growth inhibition of the cancer cells” value (CAKI-1) was “+++ (at least 75% growth inhibition of the cancer cells)”, the “growth inhibition of the cancer cells” value (RXF 393) was “+++ (at least 75% growth inhibition of the cancer cells)” and the “growth inhibition of the cancer cells” value (SN12C) was “+++ (at least 75% growth inhibition of the cancer cells)”. The “growth inhibition of the cancer cells” value (TK-10) was “+++ (at least 75% growth inhibition of the cancer cells)”, the “growth inhibition of the cancer cells” value (UO-31) was “+++ (at least 75% growth inhibition of the cancer cells)” and the “growth inhibition of the cancer cells” value (LOXIMVI) was “+++ (at least 75% growth inhibition of the cancer cells)”. For the same compound, the “growth inhibition of the cancer cells” value (M14) was “+++ (at least 75% growth inhibition of the cancer cells)”, the “growth inhibition of the cancer cells” value (MALME-3M) was “+++ (at least 75% growth inhibition of the cancer cells)” and the “growth inhibition of the cancer cells” value (SK-MEL-2) was “++ (40%-75% growth inhibition of the cancer cells)”. The “growth inhibition of the cancer cells” value (SK-MEL-28) was “+++ (at least 75% growth inhibition of the cancer cells)”, the “growth inhibition of the cancer cells” value (SK-MEL-5) was “+++ (at least 75% growth inhibition of the cancer cells)” and the “growth inhibition of the cancer cells” value (UACC-257) was “+++ (at least 75% growth inhibition of the cancer cells)”. For the same compound, the “growth inhibition of the cancer cells” value (UACC-62) was “++ (40%-75% growth inhibition of the cancer cells)”, the “growth inhibition of the cancer cells” value (DU-145) was “+++ (at least 75% growth inhibition of the cancer cells)” and the “growth inhibition of the cancer cells” value (PC-3) was “++ (40%-75% growth inhibition of the cancer cells)”. For the same compound, the “growth inhibition of the cancer cells” value (SF-268) was “++ (40%-75% growth inhibition of the cancer cells)”, the “growth inhibition of the cancer cells” value (SF-295) was “+++ (at least 75% growth inhibition of the cancer cells)” and the “growth inhibition of the cancer cells” value (SF-539) was “+++ (at least 75% growth inhibition of the cancer cells)”. For the same compound, the “growth inhibition of the cancer cells” value (SNB-19) was “++ (40%-75% growth inhibition of the cancer cells)”, the “growth inhibition of the cancer cells” value (SNB-75) was “++ (40%-75% growth inhibition of the cancer cells)” and the “growth inhibition of the cancer cells” value (U251) was “+++ (at least 75% growth inhibition of the cancer cells)”.
